System: Pichia stipitis UC7 NRRL Y-21448
Assay: Testing for sensitivity to Zeocin: plating on YPD pH 7.5 with Zeocin
Assay type: cell-based
Settings: plated on YPD pH 7.5; Zeocin tested from 25 μg/ml to 500 μg/ml
Procedure: Pichia stipitis UC7 NRRL Y-21448 (2) is a ura3 auxotrophic mutant of P. stipitis CBS 6054 (ARS Culture Collection, NRRL USDA Peoria, Ill.). To test if Pichia stipitis UC7 is sensitive to Zeocin, UC7 was plated on YPD (Kaiser, Michaelis and Mitchell, 1994) pH 7.5 (1% yeast extract, 2% peptone, 2% dextrose, NaOH to pH 7.5) in the presence of Zeocin (Invitrogen) at a concentration of from 25 μg/ml to 500 μg/ml. Zeocin concentrations of 100 μg/ml or greater killed Pichia stipitis UC7.

SMILES: Cc1c(N)nc([C@H](CC(N)=O)NC[C@H](N)C(N)=O)nc1C(=O)N[C@H](C(=O)N[C@H](C)[C@@H](O)[C@H](C)C(=O)N[C@H](C(=O)NCCC1=N[C@@H](c2nc(C(=O)NCCCCN=C(N)N)cs2)CS1)[C@@H](C)O)[C@@H](O[C@@H]1O[C@@H](CO)[C@@H](O)[C@H](O)[C@@H]1O[C@H]1O[C@H](CO)[C@@H](O)[C@H](OC(N)=O)[C@@H]1O)c1cnc[nH]1 [Zeocin]
- Zeocin concentrations that killed Pichia stipitis UC7: ≥ 100 µg/mL

— patent US7501275B2, “Yeast transformation system” (The United States of America as represented by the …, priority 2004, dated 2009)
